Patent US7569225B2, “Immunogenic lipopeptides comprising T-helper and B-cell epitopes” (The Council of The Queensland Institute of Medical Research, priority 2002, dated 2009)
Several values for one entry are separate records, joined by “and”; a condition that tells them apart may be missing. Identical values can stand only once. Entries after “also recorded” stand apart in the source; their conditions may differ. Like-named read-outs stand apart in the source and are kept apart here. Where no end group is shown, it is not given here. Pam3Cys = lipoamino acid of Formula (III) conjugated to the N-terminus; Pam2Cys = lipid of Formula (II)

Assays:
[1] = system: female mice; format: in vivo, BALB/c mice; conditions: for Incidence of pregnancy 13 weeks after 2nd Dose / Incidence of pregnancy 2 weeks after 2nd Dose: 20 nmoles subcutaneously; for Incidence of pregnancy 13 weeks after 2nd Dose: animals per group of five; for Incidence of pregnancy 2 weeks after 2nd Dose: animals that dropped litters per group of five; for Pregnancy status (No. of animals per group that dropped litters): fertility experiment initiated two weeks after second dose
[2] = system: D1 cells; format: cell-based, BALB/c mouse
[3] = Solubility of peptides and lipopeptides in saline (visual inspection); format: physicochemical; conditions: for solubility / appearance of solution: visual inspection
Experimental: FIG. 2 is a photographic representation showing the solubilities of lipopeptides designated [Th]-Lys(Pam2Cys-Ser-Ser)-[B] (left) and Pam2Cys-Ser-Ser-[Th]-[B] (right) in FIG. 1, wherein the polypeptide moieties have the amino acid sequences set forth in SEQ ID NO: 7 and SEQ ID NO: 5, respectively. Both solutions are approximately 1 mg/ml lipopeptide in saline solution.
Enhanced solubility was most evident in those cases where lipid was attached between the two epitopes at the approximate centre of the molecule. The lipopeptides designated [Th]-Lys(Pam2Cys)-[B] and [Th]-Lys(Pam3Cys)-[B] were soluble in saline at concentrations of at least 8 mg/ml (no higher concentrations were examined), whereas constructs in which lipid was attached to the N-terminus of the sequence formed opalescent solutions at concentrations as low as 0.25 mg/ml.
We considered that the insoluble nature of this construct would prevent it from being considered as a viable proposition for manufacture as a vaccine.

[4] = system: M1 GAS strain; experiment: Survival of inoculated mice after intranasal challenge with GAS; format: in vivo, Group A Streptococcus; conditions: Quackenbush mice, challenge two weeks after last dose
Experimental: Two weeks after the last dose of antigen, mice were challenged intranasally with M1 GAS strain and survival determined at various time points afterwards.
Female outbred Quackenbush mice 4-6 weeks old (15/group) were inoculated intranasally with 60 μg of peptide-based vaccine in a total volume of 30 μl PBS. Mice received three doses of vaccine at 21-day intervals. […] Two weeks after the last dose of antigen, mice were challenged intranasally with M1 GAS strain and survival determined at various time points afterwards.

[5] = system: J14; conditions: Quackenbush mice, 60 μg intranasally, three doses at 21-day intervals, seven days after final dose; versus control groups
Experimental: The lipoamino acid moiety Pam2Cys-Ser-Ser was added to an internal lysine positioned between the T-helper epitope and the B-cell epitope in all lipopeptides tested. In the lipopeptide [Th]-Lys(Pam2Cys-Ser-Ser)-[J14], this is the only lipid moiety, whereas in the lipopeptide Pam2Cys-Ser-Ser-[Th]-Lys(Pam2Cys-Ser-Ser)-[J14], an additional lipoamino acid moiety Pam2Cys-Ser-Ser was added to the N-terminal amino group of the T-helper epitope. […] Seven days following the final dose mice were bled from the tail vein and J14-specific serum IgG was determined.
ELISA assays were carried out on serum samples as described essentially by Ghosh et al., Int Immun. […] The titres of antibody are expressed as the reciprocal of the highest dilution of serum to achieve an OD of 0.2, which represents approximately 5 times the background binding in the absence of antibody. The isotype of antibodies specific for LHRH or J14 was determined using rabbit antisera directed against mouse IgM, IgG1, IgG2a, IgG2b, IgG3 or IgA (ICN Pharmaceuticals Inc., Costa Mesa, Calif.) as previously described by Ghosh et al., Int Immun.
Female outbred Quackenbush mice 4-6 weeks old (15/group) were inoculated intranasally with 60 μg of peptide-based vaccine in a total volume of 30 μl PBS. […] Seven days following the final dose mice were bled from the tail vein and J14-specific serum IgG was determined.

[6] = system: J14; conditions: Quackenbush mice, 60 μg intranasally, three doses, eight days after final dose; versus control groups
Experimental: Female outbred Quackenbush mice 4-6 weeks old (15/group) were inoculated intranasally with 60 μg of each peptide-based vaccine in a total volume of 30 μl PBS. Mice received three doses of vaccine at 21-day intervals. Eight days following the final dose saliva was collected from individual mice and the average J14-specific salivary IgA antibody titres were determined by standard ELISA.
Female outbred Quackenbush mice 4-6 weeks old (15/group) were inoculated intranasally with 60 μg of peptide-based vaccine in a total volume of 30 μl PBS. Mice received three doses of vaccine at 21-day intervals. […] Eight days following the final dose saliva was collected from individual mice and the average J14-specific salivary IgA antibody titres were determined by standard ELISA.

[7] = system: J14; conditions: Quackenbush mice, 60 μg intranasally, three doses, 6 days after last dose
Experimental: Female outbred Quackenbush mice 4-6 weeks old (15/group) were inoculated intranasally with 60 μg of peptide-based vaccine in a total volume of 30 μl PBS. Mice received three doses of vaccine at 21-day intervals. Fecal IgA was determined 6 days following the last dose of antigen.

In the case of “Pam2Cys-[Th]—[B]: lipid of Formula (II) conjugated to the N-terminus of peptide [Th]-[B] (SEQ ID NO: 5) (Pam2Cys-GALNNRFQIKGVELKSEHWSYGLRPG)”, the “Incidence of pregnancy 13 weeks after 2nd Dose” value (“Incidence of pregnancy 13 weeks” below) [1] is reported as 3/5, the “Incidence of pregnancy 2 weeks after 2nd Dose” value (“Incidence of pregnancy 2 weeks” for short) [1] is reported as 2/5 and the “Incidence of pregnancy 2 weeks” value ([1]; listed as Pam2Cys-[Th]-[B]) is reported as “two animals”. For the same molecule, the “ability to cause maturation of DC / up-regulate MHC class II expression (FIG. 5)” value [2] was “least effective”.

With `CCCCCCCCCCCCCCCC(=O)OCC(CSC[C@H](N)C(=O)N[C@@H](CO)C(=O)N[C@@H](CO)C(=O)NCCCC[C@H](NC(=O)[C@H](CO)NC(=O)[C@H](CCCCN)NC(=O)[C@H](CC(C)C)NC(=O)[C@H](CCC(=O)O)NC(=O)[C@@H](NC(=O)CNC(=O)[C@H](CCCCN)NC(=O)[C@@H](NC(=O)[C@H](CCC(N)=O)NC(=O)[C@H](Cc1ccccc1)NC(=O)[C@H](CCCNC(=N)N)NC(=O)[C@H](CC(N)=O)NC(=O)[C@H](CC(N)=O)NC(=O)[C@H](CC(C)C)NC(=O)[C@H](C)NC(=O)CN)[C@@H](C)CC)C(C)C)C(=O)N[C@@H](CCC(=O)O)C(=O)N[C@@H](Cc1c[nH]cn1)C(=O)N[C@@H](Cc1c[nH]c2ccccc12)C(=O)N[C@@H](CO)C(=O)N[C@@H](Cc1ccc(O)cc1)C(=O)NCC(=O)N[C@@H](CC(C)C)C(=O)N[C@@H](CCCNC(=N)N)C(=O)N1CCC[C@H]1C(=O)NCC(=O)O)OC(=O)CCCCCCCCCCCCCCC` (stereo partly drawn) [[Th]-Lys(Pam2Cys-Ser-Ser)-[B]] the “solubility / appearance of solution” value [3] was “clear; also recorded: higher solubility”.

For “[Th]-[J14]: non-lipidated peptide of T-helper epitope P25 (SEQ ID NO: 24) and J14 (SEQ ID NO: 101) (KLIPNASLIENCTKAELKQAEDKVKASREAKKQVEKALEQLEDKVK)”, the “survival following intranasal challenge with GAS (FIG. 16)” value [4] was “some protective immunity”.

Molecule `CCCCCCCCCCCCCCCC(=O)OCC(CSC[C@H](N)C(=O)NCCCC[C@H](NC(=O)[C@H](CO)NC(=O)[C@H](CCCCN)NC(=O)[C@H](CC(C)C)NC(=O)[C@H](CCC(=O)O)NC(=O)[C@@H](NC(=O)CNC(=O)[C@H](CCCCN)NC(=O)[C@@H](NC(=O)[C@H](CCC(N)=O)NC(=O)[C@H](Cc1ccccc1)NC(=O)[C@H](CCCNC(=N)N)NC(=O)[C@H](CC(N)=O)NC(=O)[C@H](CC(N)=O)NC(=O)[C@H](CC(C)C)NC(=O)[C@H](C)NC(=O)CN)[C@@H](C)CC)C(C)C)C(=O)N[C@@H](CCC(=O)O)C(=O)N[C@@H](Cc1c[nH]cn1)C(=O)N[C@@H](Cc1c[nH]c2ccccc12)C(=O)N[C@@H](CO)C(=O)N[C@@H](Cc1ccc(O)cc1)C(=O)NCC(=O)N[C@@H](CC(C)C)C(=O)N[C@@H](CCCNC(=N)N)C(=O)N1CCC[C@H]1C(=O)NCC(=O)O)OC(=O)CCCCCCCCCCCCCCC` (some centres unmarked) [[Th]-Lys(Pam2Cys)-[B]] has a solubility ([3]; no higher concentrations were examined, read-out: soluble in saline at concentrations of at least) of at least 8000 µg/mL.

For GALNNRFQIKGVELKSEHWSYGLRPG [[Th]—[B]], the “Pregnancy status (No. of animals per group that dropped litters)” value ([1]; 1 nmole, subcutaneous) was 3/5, the “Pregnancy status (No. of animals per group that dropped litters)” value ([1]; 10 nmole, subcutaneous) was 1/5 and the “Incidence of pregnancy 13 weeks” value [1] was 0/5. The “Incidence of pregnancy 13 weeks” value ([1]; listed as [Th]-[B]) was “still infertile”, the “Incidence of pregnancy 2 weeks” value [1] was 0/5 and the “Incidence of pregnancy 2 weeks” value ([1]; listed as [Th]-[B]) was “None of the mice”. The “Pregnancy No. animals per group that dropped litters” value ([1]; subcutaneous, initiated two weeks after second dose) was 0/5.

With `CCCCCCCCCCCCCCCC(=O)OCC(CSC[C@H](N)C(=O)N[C@@H](CO)C(=O)N[C@@H](CO)C(=O)NCC(=O)N[C@@H](C)C(=O)N[C@@H](CC(C)C)C(=O)N[C@@H](CC(N)=O)C(=O)N[C@@H](CC(N)=O)C(=O)N[C@@H](CCCNC(=N)N)C(=O)N[C@@H](Cc1ccccc1)C(=O)N[C@@H](CCC(N)=O)C(=O)N[C@H](C(=O)N[C@@H](CCCCN)C(=O)NCC(=O)N[C@H](C(=O)N[C@@H](CCC(=O)O)C(=O)N[C@@H](CC(C)C)C(=O)N[C@@H](CCCCN)C(=O)N[C@@H](CO)C(=O)N[C@@H](CCC(=O)O)C(=O)N[C@@H](Cc1c[nH]cn1)C(=O)N[C@@H](Cc1c[nH]c2ccccc12)C(=O)N[C@@H](CO)C(=O)N[C@@H](Cc1ccc(O)cc1)C(=O)NCC(=O)N[C@@H](CC(C)C)C(=O)N[C@@H](CCCNC(=N)N)C(=O)N1CCC[C@H]1C(=O)NCC(=O)O)C(C)C)[C@@H](C)CC)OC(=O)CCCCCCCCCCCCCCC` (stereo partly drawn) [Pam2Cys-Ser-Ser-[Th]—[B]] the “solubility / appearance of solution” value [3] was “opalescent”.

With “GALNNRFQIKGVELKSKEHWSYGLRPG [[Th]-Lys-[B]]” the “Incidence of pregnancy 13 weeks” value [1] was “still infertile and 0/5”, the “Incidence of pregnancy 2 weeks” value [1] was “None of the mice and 0/5” and the D1 maturation rate [2] was “about 26%”.

For “[Th]-Lys(Pam2Cys-Ser-Ser)-[J14]: P25-Lys-J14 (SEQ ID NO: 106) with Pam2Cys-Ser-Ser on the internal lysine between the epitopes (KLIPNASLIENCTKAELKKQAEDKVKASREAKKQVEKALEQLEDKVK; not fully specified (residue 18); also: Pam2Cys-Ser-Ser on internal lysine between the epitopes (K18 or K19))”, the “survival following intranasal challenge with GAS (FIG. 16)” value [4] was “best survival”, the “J14-specific serum IgG titres (FIG. 12)” value [5] was “significantly higher (P<0.05) serum IgG titres” and the “J14-specific salivary IgA titres (FIG. 14)” value [6] was “far superior”. For the same molecule, the “faecal IgA titres (FIG. 15)” value [7] was “significant (P<0.05) faecal IgA titres”.

In the case of “Pam3Cys-Ser-Ser-[Th]—[B]: lipoamino acid of Formula (III) conjugated to the N-terminus of peptide [Th]-[B] (SEQ ID NO: 5) (Pam3Cys-SSGALNNRFQIKGVELKSEHWSYGLRPG)”, the “solubility / appearance of solution” value [3] is reported as “so insoluble that it could not be purified by RP-HPLC”, the “Incidence of pregnancy 13 weeks” value [1] is reported as 0/5 and the “Incidence of pregnancy 2 weeks” value [1] is reported as 2/5. For the same molecule, the “Incidence of pregnancy 2 weeks” value ([1]; listed as Pam3Cys-Ser-Ser-[Th]-[B]) was “two animals”.
